Reference: US6492137B1, “Response element compositions and assays employing same” (The Salk Institute for Biological Studies, priority 1989, dated 2002)

Experiments:
[1] = target: T1, TRβ (Homo sapiens, UniProt P10828); experiment: Gel retardation DNA-binding assay with TRβ-expressing COS cell extracts; design: expressed in transfected cells; host or cells: COS cells (whole-cell extract); conditions: for competition for TRβ binding to 32P-labeled MHC-N: 50-fold excess of unlabeled oligonucleotide, COS cell extracts; for TRβ binding to labeled oligonucleotide probe: gel retardation, TRβ COS cell extract
T1 sequence (P10828 1-461): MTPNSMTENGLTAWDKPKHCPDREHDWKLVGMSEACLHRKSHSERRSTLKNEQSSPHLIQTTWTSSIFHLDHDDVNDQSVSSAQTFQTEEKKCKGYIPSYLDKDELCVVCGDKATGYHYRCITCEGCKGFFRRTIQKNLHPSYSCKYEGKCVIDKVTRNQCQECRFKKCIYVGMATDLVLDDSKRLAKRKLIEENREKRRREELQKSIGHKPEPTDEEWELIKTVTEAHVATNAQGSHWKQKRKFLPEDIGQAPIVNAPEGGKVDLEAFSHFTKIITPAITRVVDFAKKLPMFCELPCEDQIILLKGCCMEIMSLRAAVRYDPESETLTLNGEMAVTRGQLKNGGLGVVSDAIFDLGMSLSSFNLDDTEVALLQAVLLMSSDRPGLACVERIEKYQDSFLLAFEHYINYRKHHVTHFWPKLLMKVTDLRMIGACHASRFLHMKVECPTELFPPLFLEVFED
Description: For DNA binding assays, COS cells were cultured in DMEM with 10% calf bovine serum and transfected by the calcium phosphate method with 20 μg of the pCMX receptor expression plasmid for 6 hours followed by a glycerol shock. After incubating the transfected COS cells for another 48 hours, the cells were harvested to prepare extracts for the DNA binding assay, carried out as described by Damm et al., Nature 339: 593-597 (1989). The extracts were made in 20 mM HEPES (pH 7.4), 0.4 M KCl, 2 mM DTT and 20% glycerol. A similar method was employed to prepare a whole cell extract from F9 stem cells. For the binding, 5 μg (COS) or 10 μg (F9) of proteins was incubated on ice for 20 minutes, first in 20 mM HEPES, 80 mM KCl, 1 mM DTT, 0.1% NP40, 2.5 μg of poly dI/dC, and 10% glycerol (cold competitor oligonucleotides, when included, were added during this pre-incubation period). Then 40 fmole of ^32P-labeled oligonucleotide probe (1-2×10^5 cpm, prepared by filling-in reaction using Klenow polymerase in the presence of α-^32P-dCTP) was added to the reaction mixture, followed by incubation at room temperature for 30 minutes. The receptor-DNA complexes were resolved by electrophoresis through 5% polyacrylamide gel containing 5% glycerol at 6 V/cm at room temperature.
Oligonucleotides listed in FIG. 3 were used as a probe to test specific DNA-binding of the RARα and TRβ in a gel retardation assay.
Using the mobility shift assay, the DNA-binding capacity of extracts from COS cells expressing TRβ and RARα to these sequences was also tested.

[2] = target: T1, TRβ; experiment: ΔSV-CAT reporter cotransfection assay in CV-1 cells with TRβ expression plasmid, ±T3; format: cell-based; design: expressed in transfected cells; host or cells: CV-1 (monkey kidney); conditions: TRβ expression vector
Source text: Receptor expression plasmids used in the following cotransfection assays have been described previously (pRShTRβ [see Thompson, et al., Proc. Natl. Acad. Sci. U.S.A. 86: 3494-3498 (1989)]; pRShRARα [see Giguere, et al., Nature 330: 624-629 (1987)]; pRShRARβ and pRshRARγ [see Ishikawa, et al., Mol. Endocrinol, 4: 837-844 (1990)]; and pRShVDR, [Schule, et al., Cell 61: 497-504 (1990)]. A basal reporter plasmid ΔSV-CAT was constructed by replacing the TK promoter in TK-CAT [Damm, et al., Nature 339: 593-597 (1989)] with the SphI-HindIII fragment of the SV40 early promoter. All of the recombinant CAT reporter plasmids used herein harbor a single copy of the indicated oligonucleotides at the unique HindIII site upstream of the SV40 promoter. […] To improve production of receptor proteins in COS cells, a new eukaryotic expression vector pCMX was prepared by modifying the plasmid CDM8 [Seed, B., Nature 329: 840-842 (1987)]. The CDM8 was cut with MluI and StuI in order to release the DNA fragment encoding the CMV/T7 promoter, SV40 small t intron/poly A signal, polyoma virus enhancer/origin, and SV40 enhancer/origin. The resulting fragment was ligated to a larger fragment of PvuII-digested PUC19. An internal deletion was introduced between unique BamHI and BclI sites present in the DCM8 portion. The stuffer sequence flanked by XbaI sites was replaced with a synthetic polylinker coding for 5′-KpnI/Asp718-EcoRV-BamHI -MscI-NheI-3′, followed by a stretch of 5′-[…]-3′ (SEQ ID NO:48) which can function as a universal termination signal for protein translation. The coding sequence of the luciferase [de Wet, et al., Mol. Cell. Biol. 7: 725-737 (1987)] and human TRβ, RARα, and VDR was placed in the polylinker region of the pCMX, generating pCMX-LUC, Pcmx-Htrβ, pCMX-hRARα, and pCMX-hVDR, respectively. The translation start site of the RARα was modified to […] by attaching the synthetic linker encoding a consensus translation start signal [Hollenberg, et al., Cell 55: 899-906 (1988)].
(§1) For cotransfection assays, a monkey kidney cell line CV-1 was kept in Dulbecco's modified Eagle's medium (DMEM) supplemented with 10% charcoal-resin double split calf bovine serum. Transfections were performed via calcium-phosphate precipitation method as described by Umesono, et al. in Cell 57: 1139-1146 (1989), with 0.5 μg of a pRS receptor expression plasmid, 1.0 μg of a reporter CAT plasmid, 5 μg of pRAS-βGAL [Umesono, et al., Cell 57: 1139-1146 (1989)] as an internal control, and 8.5 μg of carrier plasmid pUC19. The cells were transfected for 8 hours; after washing the DNA precipitates, the cells were then incubated for an additional 36 hours with or without the ligand (T3, 100 nM; RA, 1 μM; 1,25-(OH)2 vitamin D3, 100 nM). Cell extracts were prepared for βGAL and CAT assays, as described by Umesono, et al., supra. Transfection of F9 teratocarcinoma cells was carried out employing a similar method except the cells were incubated for 12 hours in the presence of the DNA precipitates, and the RA was added at 1 μM for another 24 hours before harvesting the cells. 2, 5, and 4 μg of the reporter, pRAS-βGAL, and pUC19 were used, respectively.
Target hormone response elements described in FIG. 3 were synthesized as double-stranded oligonucleotides with an overhanging tetranucleotide (5′-agct-3′) at both ends. A single copy of these oligonucleotides was cloned at the unique HindIII site present in the basal promoter CAT construct ΔSV-CAT. Capitalized portions in the nucleotide sequences correspond to those found in the natural promoters except TREp and rGH21, which are synthetic. Bold letters indicate the “AGGTCA” motif and “X” denotes a nucleotide substitution from this motif.

[3] = tested on: F9 teratocarcinoma stem cells; experiment: CAT reporter transfection into RA responsive F9 teratocarcinoma stem cells; format: cell-based, mouse; conditions: RA 1 μM, 24 hours; no transfected receptor
Description: as §1
Similarly, when the same set of reporters as in FIG. 4 were transfected into F9 cells, only MHC-R (5-nucleotide spacer) and TREp are potent RAREs. In contrast, its RARE antecedents (MHC-N, MHC+1, MHC-T) are inert.

Substance | competition for TRβ binding to 32P-labeled MHC-N [1] | T3 responsiveness (in words) [2] | also measured
M1: MHC-N with nucleotide substitutions in the proposed direct repeat motif (SEQ ID NO:15) (AGCTGGAAATGACAGGAGGACAGCAAGCT; DNA, backbone not given here; double-stranded DNA response element with agct overhangs, cloned into reporter) | did not | completely silent to T3 | –
M2: MHC-N mutant with nucleotide substitutions in the presumed palindrome (SEQ ID NO:16) (AGCTGGAGGTGACGAAAGGACAGCAAGCT; DNA, backbone not given here; double-stranded DNA response element with agct overhangs, cloned into reporter) | competed | retains a T3 response though impaired | –
M3: MHC-N with nucleotide substitutions in the proposed direct repeat motif (SEQ ID NO:17) (AGCTGGAGGTGACAGGAAAACAGCAAGCT; DNA, backbone not given here; double-stranded DNA response element with agct overhangs, cloned into reporter) | did not | completely silent to T3 | –
MHC+1: MHC-N with half-site spacing increased by one nucleotide (SEQ ID NO:22) (AGCTGGAGGTGAACAGGAGGACAGCAAGCT; DNA, backbone not given here; double-stranded response element with agct overhangs, cloned into reporter plasmid) | – | – | function as RARE in F9 cells [3]: inert; competition for TRβ binding (mobility shift assay) ([1]; unlabeled competitor oligonucleotide, COS cells expressing TRβ): poor competitors
MHC-D: segment of the MHC sequence including an adjacent sequence; deletion from MHC-L (SEQ ID NO:13) (AGCTTGAGGTGACAGGAGGACAGCAGCT; DNA, backbone not given here; double-stranded DNA response element with agct overhangs, cloned into reporter) | – | recovery of the full response | –
MHC-L: wild-type MHC sequence encoding a TRE in the MHC gene promoter (SEQ ID NO:11) (AGCTCCTTGGCTCTGGAGGTGACAGGAGGACAGCAGCT; DNA, backbone not given here; double-stranded response element with agct overhangs, cloned into reporter plasmid) | – | responsive to T3 | –
MHC-S: restricted region of MHC-L corresponding to the predicted palindrome (SEQ ID NO:12) (AGCTCTCTGGAGGTGACAGGAAGCT; listed as DNA, further chemistry not given here) | – | failed to confer T3 responsiveness | –
MLV-LTR: thyroid response element found in the murine Maloney Leukemia Virus LTR (SEQ ID NO:19) (DNA AGCTCAGGGTCATTTCAGGTCCTTGAAGCT; listed as DNA, chemistry not given here) [reference compound] | – | confers T3 inducibility | TRβ binding to labeled oligonucleotide probe [1]: high affinity
rGH21: rat growth hormone gene sequence proposed as a candidate TRE (SEQ ID NO:20) (AGCTAGGTAAGATCAGGTAAGTAGCT; listed as DNA, chemistry not fully specified) [reference compound] | – | fails to confer T3-dependent transactivation | TRβ binding to labeled oligonucleotide probe [1]: binds very poorly
